In assay [1] the test system is MV-4-11 human acute monocytic leukemia cells. Kind of assay: CSF-1R-related cell proliferation experiment, FLT3 (Cell Titer Glo). The assay is classed as cell-based. The settings on record: MV4-11, 72 h, read-out: Cytological experiment FLT3 IC50 (nM).
Description: (§4) Functional effects of compounds on the proliferation of several cell lines were evaluated by Cell Titer Glo (CTG) studies in the present invention, and effects of the compounds on the proliferation of different cells were evaluated to determine the selectivity of the compounds. […] No. CBP60115) were cultured in an incubator under conditions of RPM11640 (Gibco, cat. […] No. CBP60522) were cultured in an incubator under conditions of IMDM (Invitrogen, cat. […] Since ATP is an index for viable cell metabolism, CTG (Promega, #G7573) reagent is a homogeneous detection method for detecting the number of viable cells in the culture by quantifying ATP. Therefore, compound-mediated inhibition for cell proliferation/survival was evaluated by quantifying ATP content in cells, and the specific experimental process was as follows.
For assay [2], the system named is M-NFS-60 mouse myeloid leukemia lymphocytes. Kind of assay: CSF-1R cell proliferation study (Cell Titer Glo).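 Further: M-CSF-driven proliferation, viable cells quantified as ATP by luminescence, compounds tested as 3-fold serial dilutions, values from four-parameter curve fits.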 Type of assay: cell-based. Conditions: Lymphocyte, 72 h.
Description: Functional effects of compounds on cell proliferation were evaluated by using Cell Titer Glo (CTG) study in the present invention. […] Since ATP is an index for viable cell metabolism, CTG (Promega, #G7573) reagent is a homogeneous detection method for detecting the number of viable cells in the culture by quantifying ATP. Therefore, compound-mediated inhibition for cell proliferation/survival was evaluated by quantifying ATP content in cells, and the specific experimental process was as follows:
3. 10 μL of culture medium containing M-CSF with 10-fold of the final concentration was then added to each well;
4. dosage effect was evaluated by testing the 3-fold serial dilutions of the compound;
5. after the cells were incubated for 3 days at 37° C. and 5% CO2, the inhibition on cell survival was quantified after 50 μL of CTG was added and the luminescence assay was performed;
6. the compound concentration leading to half maximal inhibitory (IC50) and the compound concentration leading to absolute half maximal inhibitory (Absolute IC50) was measured by a plate reader (M1000, Tecan) and a four-parameter curve fit in Graphpad Prism 7.
For assay [3], the system named is M-07e human cytomegalic leukemia cells. In words: CSF-1R-related cell proliferation experiment, KIT (Cell Titer Glo). The assay is classed as cell-based. Conditions: 72 h, read-out: Cytological experiment KIT IC50 (nM). For orientation: ATP-based viability assays read luminescence as a measure of living cells.
Description: as §4
In another assay the target is KIT (Homo sapiens, UniProt P10721). Kind of assay: KIT in vitro biochemical kinase study (Caliper EZ Reader). Conditions: * = average of multiple tests; read-out: Enzymatic experiment KIT IC50. As to the method: (§1) 8. the compound IC50 value was measured by using a plate reader (Tecan, M1000) and a four-parameter curve was generated in Graphpad Prism. The enzymatic activities of compounds in the specific embodiments are shown in Table 1. • B. KIT/PDGFRA in vitro biochemical kinase study • 1. Preparation of 1-fold kinase buffer and stop solution • 1.1. 1-fold kinase buffer: 50 mM HEPES, pH 7.5, 0.0015% Brij-35. • 1.2 stop solution: 100 mM HEPES, pH 7.5, 0.015% Brij-35, 0.2% Coating Reagent #3, 50 mM EDTA • 2 Preparation of compound solution • 2.1 Dilution of compound solution • 1) The final concentration of the compound solution was 40 μM, and the concentration of the prepared stock solution was 50 times of the final concentration, i.e., 2 mM. • 2) 80 μL of 100% DMSO was added to the second well of a 96-well plate, and then 20 μL of 10 mM compound solution was added to obtain 2 mM compound solution. 60 μL of 100% DMSO was added to other wells. 20 μL solution was taken from the second well and added to the third well, which was diluted by 4 times. This serial 4-time dilution was conducted in sequence for the total of 10 concentration. • 2.2 5-fold compound solution transferred to a reaction plate • 1) 10 μL solution was taken from each well of the above 96-well plate and added to another 96-well plate, and 90 µl of kinase buffer was added in each well of new plate. • 2) 5 μL solution was taken from the above 96-well plate and added to a 384-well reaction plate. • 2.3 Kinase reaction • 1) KIT/PDGFRA kinase was added to the 1-fold kinase buffer solution to obtain a 2.5-fold kinase solution. • 2) FAM-labeled polypeptide and ATP were added to the 1-fold kinase buffer solution to obtain a 2.5-fold substrate solution. • 3) 10 μL of 2.5-fold kinase solution was added to the 384-well reaction plate, which already contained 5 μL of 5-fold compound in 10% DMSO. […] Percent inhibition=(max-conversion)/(max-min)×100
KIT, sequence (P10721 26-976): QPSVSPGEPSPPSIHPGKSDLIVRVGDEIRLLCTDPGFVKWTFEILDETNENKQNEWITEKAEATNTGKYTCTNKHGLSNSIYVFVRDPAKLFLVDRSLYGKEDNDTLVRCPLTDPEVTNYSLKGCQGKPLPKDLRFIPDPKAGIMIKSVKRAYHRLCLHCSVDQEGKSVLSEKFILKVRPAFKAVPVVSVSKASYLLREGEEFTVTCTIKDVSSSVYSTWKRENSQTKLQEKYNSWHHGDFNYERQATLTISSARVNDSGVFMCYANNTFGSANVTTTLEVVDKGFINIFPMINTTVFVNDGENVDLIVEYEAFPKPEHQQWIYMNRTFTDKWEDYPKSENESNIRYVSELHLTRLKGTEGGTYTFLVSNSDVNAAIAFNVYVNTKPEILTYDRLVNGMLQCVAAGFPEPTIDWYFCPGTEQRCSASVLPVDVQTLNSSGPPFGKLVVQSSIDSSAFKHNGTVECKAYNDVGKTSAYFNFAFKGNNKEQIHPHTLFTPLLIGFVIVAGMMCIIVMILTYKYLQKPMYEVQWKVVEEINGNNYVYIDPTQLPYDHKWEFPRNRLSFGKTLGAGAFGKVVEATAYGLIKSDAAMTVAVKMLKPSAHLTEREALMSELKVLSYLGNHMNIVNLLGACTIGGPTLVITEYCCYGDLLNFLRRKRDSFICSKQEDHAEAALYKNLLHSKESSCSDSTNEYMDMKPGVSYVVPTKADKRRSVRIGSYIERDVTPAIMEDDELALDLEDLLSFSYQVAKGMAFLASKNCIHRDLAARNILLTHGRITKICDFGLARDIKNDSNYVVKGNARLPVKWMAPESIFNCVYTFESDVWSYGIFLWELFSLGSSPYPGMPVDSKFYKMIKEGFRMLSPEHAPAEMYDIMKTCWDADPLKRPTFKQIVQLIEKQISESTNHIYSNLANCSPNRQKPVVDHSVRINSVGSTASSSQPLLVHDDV
(§2) 3) The IC50 value was fit with XLFit excel add-in version 5.4.0,8: Fitting formula: Y=Bottom+(Top-Bottom)/(1+(IC50/X)^HillSlope).
(§3) CSF-1R cell proliferation study

For the next assay, the target named is T1, CSF-1R (Homo sapiens, UniProt P07333).
T1 construct: 3.95 nM of CSF-1R, 500 μM of ATP
T1 sequence (P07333 20-972): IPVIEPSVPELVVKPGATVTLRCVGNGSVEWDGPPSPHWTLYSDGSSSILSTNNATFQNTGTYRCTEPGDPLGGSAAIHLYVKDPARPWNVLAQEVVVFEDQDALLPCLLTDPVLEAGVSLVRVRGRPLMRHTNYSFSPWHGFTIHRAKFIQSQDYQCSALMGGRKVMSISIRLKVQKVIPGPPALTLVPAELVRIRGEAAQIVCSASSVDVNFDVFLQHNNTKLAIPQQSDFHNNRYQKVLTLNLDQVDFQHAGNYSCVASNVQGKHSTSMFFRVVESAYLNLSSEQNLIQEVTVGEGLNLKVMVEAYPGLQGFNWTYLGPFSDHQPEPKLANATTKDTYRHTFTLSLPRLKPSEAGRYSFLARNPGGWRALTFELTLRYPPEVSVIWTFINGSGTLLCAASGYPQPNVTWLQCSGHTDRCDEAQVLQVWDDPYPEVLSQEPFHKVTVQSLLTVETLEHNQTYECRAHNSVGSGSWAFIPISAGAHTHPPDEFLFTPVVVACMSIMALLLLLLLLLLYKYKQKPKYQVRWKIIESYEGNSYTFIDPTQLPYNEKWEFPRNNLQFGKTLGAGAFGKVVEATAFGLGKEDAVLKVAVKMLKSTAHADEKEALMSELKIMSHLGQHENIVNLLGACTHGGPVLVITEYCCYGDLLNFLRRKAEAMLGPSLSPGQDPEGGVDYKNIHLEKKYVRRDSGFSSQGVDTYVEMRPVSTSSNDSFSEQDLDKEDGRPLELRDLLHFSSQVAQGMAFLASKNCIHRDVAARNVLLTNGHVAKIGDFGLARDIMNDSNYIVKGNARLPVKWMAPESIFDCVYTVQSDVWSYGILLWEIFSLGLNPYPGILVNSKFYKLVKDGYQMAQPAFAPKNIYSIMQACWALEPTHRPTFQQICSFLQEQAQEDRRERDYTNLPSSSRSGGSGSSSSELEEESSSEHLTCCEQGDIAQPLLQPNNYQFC
In words: CSF-1R in vitro biochemical kinase study (ADP-Glo assay). (In general: ADP-Glo first removes unused ATP, then detects ADP through luciferase.)

In assay [4] the test system is NCI-H1703 human non-small cell lung squamous carcinoma cells. Kind of assay: CSF-1R-related cell proliferation experiment, PDGFRA (Cell Titer Glo). The assay is classed as cell-based. Conditions: NCI-H1703, 72 h, read-out: Cytological experiment PDGERA IC50 (nM).
Description: as §4
The next assay addresses PDGFRA (Homo sapiens, UniProt P16234). Kind of assay: PDGFRA in vitro biochemical kinase study (Caliper EZ Reader). The settings on record: * = average of multiple tests; read-out: Enzymatic experiment PDGFRA IC50. The protocol:
as §1, §2, §3

Setting [5] is: read-out: Cytological experiment CS1-1R Absolute IC50 (nM).
[6] abbreviates: read-out: Cytological experiment CSF-1R IC50 (nM).

Like-named read-outs stand apart in the source and are kept apart here. Bounds are passed on as bounds.

PDGFRA, sequence (P16234 24-1089): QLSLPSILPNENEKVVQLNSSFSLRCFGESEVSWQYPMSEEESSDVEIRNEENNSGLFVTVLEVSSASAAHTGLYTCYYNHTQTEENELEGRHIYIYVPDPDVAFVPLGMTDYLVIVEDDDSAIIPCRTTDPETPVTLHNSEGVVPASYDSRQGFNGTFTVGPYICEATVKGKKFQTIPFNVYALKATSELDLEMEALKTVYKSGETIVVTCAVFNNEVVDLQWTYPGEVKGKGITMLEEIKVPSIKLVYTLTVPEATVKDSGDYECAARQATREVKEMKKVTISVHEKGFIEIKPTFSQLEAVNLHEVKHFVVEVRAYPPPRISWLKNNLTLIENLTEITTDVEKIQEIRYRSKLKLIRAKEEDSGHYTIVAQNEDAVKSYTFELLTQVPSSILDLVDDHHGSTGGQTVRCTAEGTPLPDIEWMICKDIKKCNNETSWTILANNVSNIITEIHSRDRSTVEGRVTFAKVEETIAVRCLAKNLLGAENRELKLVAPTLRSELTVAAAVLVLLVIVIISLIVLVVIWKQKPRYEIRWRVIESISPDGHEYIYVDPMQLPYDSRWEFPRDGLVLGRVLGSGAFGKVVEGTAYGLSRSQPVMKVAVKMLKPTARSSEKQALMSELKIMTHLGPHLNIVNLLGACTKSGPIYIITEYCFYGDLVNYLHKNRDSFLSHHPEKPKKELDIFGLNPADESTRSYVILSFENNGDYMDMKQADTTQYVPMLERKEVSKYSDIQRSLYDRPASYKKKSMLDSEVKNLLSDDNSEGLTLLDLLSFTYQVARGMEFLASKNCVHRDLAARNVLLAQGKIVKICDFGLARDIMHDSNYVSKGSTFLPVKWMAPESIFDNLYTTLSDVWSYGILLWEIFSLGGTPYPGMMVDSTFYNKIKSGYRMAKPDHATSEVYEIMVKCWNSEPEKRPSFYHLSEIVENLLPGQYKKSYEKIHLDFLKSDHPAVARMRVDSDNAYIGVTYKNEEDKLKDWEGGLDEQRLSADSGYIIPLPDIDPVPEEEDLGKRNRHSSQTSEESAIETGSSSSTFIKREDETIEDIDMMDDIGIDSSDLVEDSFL

In general, IC50 refers to the concentration needed to halve the response being measured. On to `Cc1nc(NC(=O)N2CCC(C)(C)C2=O)ccc1Oc1ccnc(-c2cnn(CCO)c2)c1` [Example 10, N-(5-((2-(1-(2-hydroxyethyl)-1H-pyrazol-4-yl)pyridin-4-yl)oxy)-6-methylpyridin-2-yl)-3,3-dimethyl-2-oxopyrrolidine-1-carboxamide], for which the IC50 was found to be 18000 nM in assay [1]; 140 nM in assay [2] (setting [5]); 104 nM in assay [2] (setting [6]); 4900 nM in assay [3]; 476 nM at KIT; 56.3 nM on CSF-1R. In addition, the IC50 came out at 6000 nM in assay [4] and 13.1 µM on PDGFRA.

For the molecule `Cn1cc(-c2cc(Oc3ccc(NC(=O)N4CCC(C)(C)C4=O)nc3)ccn2)cn1` [Example 2, 3,3-dimethyl-N-(5-((2-(1-methyl-1H-pyrazol-4-yl)pyridin-4-yl)oxy)pyridin-2-yl)-2-oxopyrrolidine-1-carboxamide], the IC50 was 6000 nM in assay [1]; 23.1 nM in assay [2] (setting [5]); 26.3 nM in assay [2] (setting [6]); 158 nM in assay [3]; 59.8 nM at KIT; 14.4 nM against CSF-1R. Besides, the results for the IC50 (in assay [4]; on PDGFRA) were 18000 nM and 0.435 µM, respectively.

`Cc1nc(NC(=O)N2CCC(C)(C)C2=O)ccc1Cc1ccnc(-c2cnn(C)c2)c1` [Example 21, 3,3-dimethyl-N-(6-methyl-5-((2-(1-methyl-1H-pyrazol-4-yl)pyridin-4-yl)methyl)pyridin-2-yl)-2-oxopyrrolidine-1-carboxamide]: the IC50 was over 2000 nM in assay [1]; 31.2 nM in assay [2] (setting [5]); 45.2 nM in assay [2] (setting [6]); 727 nM in assay [3]; 59.9 nM against CSF-1R; over 6000 nM in assay [4].

As to `Cc1nc(NC(=O)N2CCC(C)(C)C2=O)ccc1Oc1ccnc(-c2cnn(C3CC3)c2)c1` [Example 15, N-(5-((2-(1-cyclopropyl-1H-pyrazol-4-yl)pyridin-4-yl)oxy)-6-methylpyridin-2-yl)-3,3-dimethyl-2-oxopyrrolidine-1-carboxamide], the IC50 was over 6000 nM in assay [1]; 38.7 nM in assay [2] (setting [5]); 64.4 nM in assay [2] (setting [6]); over 1120 nM in assay [3]; 20.7 nM at CSF-1R; over 6000 nM in assay [4].

As to `Cc1nc(NC(=O)N2CCC3(CCCC3)C2=O)ccc1Oc1ccnc(-c2cnn(C)c2)c1` [Example 31, N-(6-methyl-5-((2-(1-methyl-1H-pyrazol-4-yl)pyridin-4-yl)oxy)pyridin-2-yl)-1-oxo-2-azaspiro[4.4]nonane-2-carboxamide], the IC50 in assay [1] worked out at 2980 nM; in assay [2] (setting [5]), 19.4 nM; in assay [2] (setting [6]) it was 19.2 nM; in assay [3] it was 190 nM; against CSF-1R, 8.45 nM; in assay [4], 561 nM.

Regarding `[2H]C([2H])([2H])n1cc(-c2cc(Oc3ccc(NC(=O)N4CCC(C)(C)C4=O)nc3C)ccn2)cn1` [Example 11, 3,3-dimethyl-N-(6-methyl-5-((2-(1-(methyl-d3)-1H-pyrazol-4-yl)pyridin-4-yl)oxy)pyridin-2-yl)-2-oxopyrrolidine-1-carboxamide], the IC50 in assay [1] is over 6000 nM; in assay [2] (setting [5]) it was 35.5 nM; in assay [2] (setting [6]) it was 43.5 nM; in assay [3], over 1120 nM; on CSF-1R, 21.4 nM; in assay [4], over 2000 nM.

For the molecule `CCCC1(CCC)CCN(C(=O)Nc2ccc(Oc3ccnc(-c4cnn(C)c4)c3)c(C)n2)C1=O` [Example 30, N-(6-methyl-5-((2-(1-methyl-1H-pyrazol-4-yl)pyridin-4-yl)oxy)pyridin-2-yl)-2-oxo-3,3-dipropylpyrrolidine-1-carboxamide], the IC50 came out at 1160 nM in assay [2] (setting [5]), 1380 nM in assay [2] (setting [6]) and 98.3 nM against CSF-1R.

As to `CCc1nc(NC(=O)N2CCC(C)(C)C2=O)ccc1Oc1ccnc(-c2cnn(C)c2)c1` [Example 3, N-(6-ethyl-5-((2-(1-methyl-1H-pyrazol-4-yl)pyridin-4-yl)oxy)pyridin-2-yl)-3,3-dimethyl-2-oxopyrrolidine-1-carboxamide], the results for the IC50 (in assay [2] (setting [5]); in assay [2] (setting [6]); against CSF-1R) were 687 nM, 667 nM and 229 nM, respectively.

In the case of `Cc1ncc(-c2cc(Oc3ccc(NC(=O)N4CCC(C)(C)C4=O)nc3C)ccn2)s1` [Example 5, 3,3-dimethyl-N-(6-methyl-5-((2-(2-methylthiazol-5-yl)pyridin-4-yl)oxy)pyridin-2-yl)-2-oxopyrrolidine-1-carboxamide], the results for the IC50 (in assay [2] (setting [5]); in assay [2] (setting [6]); against CSF-1R) were 334 nM, 454 nM and 54.7 nM, respectively.

With `Cc1nc(NC(=O)N2CCC(C)(C)C2=O)ccc1Oc1ccnc(NC(=O)N2CCN(C)CC2)c1` [Example 24, N-(4-((6-(3,3-dimethyl-2-oxopyrrolidine-1-carboxamido)-2-methylpyridin-3-yl)oxy)pyridin-2-yl)-4-methylpiperazine-1-carboxamide], the figures for the IC50 (in assay [2] (setting [5]); in assay [2] (setting [6]); against CSF-1R) were 164 nM, 221 nM and 56.6 nM, respectively.

Regarding `CCC1(C)CCN(C(=O)Nc2ccc(Oc3ccnc(-c4cnn(C)c4)c3)c(C)n2)C1=O` (stereo not shown) [Example 33, 3-ethyl-3-methyl-N-(6-methyl-5-((2-(1-methyl-1H-pyrazol-4-yl)pyridin-4-yl)oxy)pyridin-2-yl)-2-oxopyrrolidine-1-carboxamide], the IC50 was over 6000 nM in assay [1]; 40.3 nM in assay [2] (setting [5]); 41.9 nM in assay [2] (setting [6]); 535 nM in assay [3]; 19.9 nM against CSF-1R; over 6000 nM in assay [4].

For `Cc1nc(NC(=O)N2CCC(C)(O)C2=O)ccc1Oc1ccnc(-c2cnn(C)c2)c1` (stereo not shown) [Example 41, 3-hydroxy-3-methyl-N-(6-methyl-5-((2-(1-methyl-1H-pyrazol-4-yl)pyridin-4-yl)oxy)pyridin-2-yl)-2-oxopyrrolidine-1-carboxamide], the IC50 in assay [1] is over 18000 nM; in assay [2] (setting [5]), over 2000 nM; in assay [2] (setting [6]), over 2000 nM; in assay [3], over 18000 nM; at CSF-1R, 445 nM; in assay [4] it was over 18000 nM.

As to `COCCC1(C)CCN(C(=O)Nc2ccc(Oc3ccnc(-c4cnn(C)c4)c3)c(C)n2)C1=O` (stereo not shown) [Example 37, 3-(2-methoxyethyl)-3-methyl-N-(6-methyl-5-((2-(1-methyl-1H-pyrazol-4-yl)pyridine-4-yl)oxy)pyridin-2-yl)-2-oxopyrrolidine-1-carboxamide], the IC50 amounted to 140 nM in assay [2] (setting [5]), 141 nM in assay [2] (setting [6]) and 207 nM against CSF-1R.

`Cc1nc(NC(=O)N2CCC(C)(C)C2=O)ccc1Oc1ccnc(-c2cnn(CCN3CCOCC3)c2)c1` [Example 8, 3,3-dimethyl-N-(6-methyl-5-((2-(1-(2-morpholinoethyl)-1H-pyrazol-4-yl)pyridin-4-yl)oxy)pyridin-2-yl)-2-oxopyrrolidine-1-carboxamide]: the results for the IC50 (in assay [2] (setting [5]); in assay [2] (setting [6]); on CSF-1R) were 110 nM, 148 nM and 57.9 nM, respectively.

`Cc1nc(NC(=O)N2CCC(C)(C)C2=O)ccc1Oc1ccnc(-c2cnn(C)c2)n1` [Example 22, 3,3-dimethyl-N-(6-methyl-5-((2-(1-methyl-1H-pyrazol-4-yl)pyrimidin-4-yl)oxy)pyridin-2-yl)-2-oxopyrrolidine-1-carboxamide]: the IC50 in assay [2] (setting [5]) worked out at 500 nM; in assay [2] (setting [6]), 500 nM; against CSF-1R it was 249 nM.

On to `CCC1(CC)CCN(C(=O)Nc2ccc(Oc3ccnc(-c4cnn(C)c4)c3)c(C)n2)C1=O` [Example 34, 3,3-diethyl-N-(6-methyl-5-((2-(1-methyl-1H-pyrazol-4-yl)pyridin-4-yl)oxy)pyridin-2-yl)-2-oxopyrrolidine-1-carboxamide], for which the IC50 in assay [1] is over 2000 nM; in assay [2] (setting [5]), 21.5 nM; in assay [2] (setting [6]) it was 21.3 nM; in assay [3], 667 nM; at CSF-1R, 51.7 nM; in assay [4], 1330 nM.

The values are drawn from patent US11149021B2, “N-(azaaryl)cyclolactam-1-carboxamide derivative, preparation method therefor, and use thereof” (Abbisko Therapeutics Co., Ltd., priority 2017, dated 2021).
